In patent US5462861A, “Method for improving enzyme activities with noble gases” (American Air Liquide, Chicago Research Center, priority 1993, dated 1995):
“Also recorded” adds a separate entry of the source.

Experiments:
Tyrosinase [1] = assay: Gas mixture experiment, tyrosinase; format: biochemical, Mushroom; settings: inhibition vs. air control, 25° C.
Procedure: In addition to mixes of noble gases with nitrogen and oxygen, and of mixes of Kr and Xe, serial mixes of Ar and either Xe or Kr were tested. Results for tyrosinase expressed as inhibition vs. air control: Apr. 18, 1991: Gas mix prep: 120 cc serum vials were used to mix the gassed in. These vials were purged using vacuum while 1 atm of argon was maintained in the vial. The vials were purged for 20 seconds in this manner. The vials were under slight pressure which was released through a needle. This is considered 120 cc of Argon. The necessary volumes of Argon and the gas to be mixed with (Xe or Kr) were then introduced into the vials using a 30 cc syringe and needle. We gassed the enzyme using 1 vial of gas mix using 8×10 cc of gas out of the vial. We gassed the cuvette/substrate using a second vial of gas mix using 8×10 cc of gas out of the vial. Argon and Xenon were retrieved from the gas cylinders. […] We determined that we would be unable to retrieve 8×10 cc of gas mix from 1 vial. […] We prepared the Ar/Kr mixes as described above and did 2 replicates of the 10% and 50% mixes.

citrate synthetase = biological target: T1, citrate synthetase (Homo sapiens, UniProt O75390); assay: Citrate synthetase complex reaction under gas; format: biochemical; settings: for effect on citrate synthase: FIG. 33
T1 sequence (O75390 28-466): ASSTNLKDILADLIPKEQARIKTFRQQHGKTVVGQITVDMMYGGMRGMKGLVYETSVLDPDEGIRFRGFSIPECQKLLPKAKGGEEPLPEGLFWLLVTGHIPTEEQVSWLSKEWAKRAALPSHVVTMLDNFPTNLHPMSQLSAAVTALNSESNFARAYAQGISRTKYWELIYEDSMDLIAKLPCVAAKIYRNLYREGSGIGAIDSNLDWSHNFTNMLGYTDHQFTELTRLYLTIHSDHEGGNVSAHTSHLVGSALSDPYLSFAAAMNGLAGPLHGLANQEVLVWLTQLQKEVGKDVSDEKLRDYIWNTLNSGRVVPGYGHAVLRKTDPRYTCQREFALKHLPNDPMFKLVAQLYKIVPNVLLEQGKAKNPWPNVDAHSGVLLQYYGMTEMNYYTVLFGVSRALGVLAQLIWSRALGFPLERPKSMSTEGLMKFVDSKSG
Procedure: (§1) Solution preparation: Optimized w/v solutions are prepared by diluting the enzyme (units/ml) and the substrate (μg/ml) in appropriate buffer (optimized pH and molarity for enzymes). The solutions are used for gas experiments at once to avoid loss of activity. Various enzyme and substrate concentrations and inhibitors may be employed. Physical parameters are varied as required.
(§2) Preparation of samples: Cuvets are filled with 2 ml of substrate solution by means of a gas-tight syringe. Gas-tight serum vials are filled with enzyme and solvent. Sufficient gas is consecutively bubbled in the cuvets and serum vials, with a 1-hr wait between injections to maximize equilibration of gas. All syringes and dead spaces are purged before filling with the appropriate gas. The amount of gas used has been measured sufficient to saturate the solution required.
(§3) Spectrophotometric time-drive, reaction rate, and kinetic analyses: cuvets and serum vials are saturated with gas 40 minutes before the run. A gas-filled syringe is used to retrieve 0.5 ml of enzyme solution to avoid air contact. The 0.5 ml syringe injections of enzyme are made simultaneously to effect a common starting time to for the samples. 7 gases (air, O2, N2, Ne, Ar, Kr, Xe) are run at various temperatures each (from 0° to 60° ). Changes in the rate or final equilibrium of the reaction versus ambient air are recorded. Comparison is also made with added oxygen, and with deoxygenation. Some samples are also prepared under pressure.
(§4) In a complete experiment, an enzyme at optimal pH and buffering salt concentration is reacted with 5 substrate concentrations in solution with noble gas at 1 atm. […] Controls are also run after evacuation of solution by vacuum. The reaction is monitored colorimetrically in a scanning spectrophotometer in real time, and the signals are treated mathematically to obtain rate and yield differences. Sample numbers are constant and sufficient to ensure significance of results. All parameters are independently controlled and measured, and more complex experiments are occasionally carried out.

[2] = biological target: Gamma-glutamyl transpeptidase (Homo sapiens, UniProt P19440); assay: Gamma-glutamyl transpeptidase activity under gas; format: biochemical; settings: for effect on α-glutamyltranspeptidase: FIG. 29; for effect: minus = inhibition
Procedure: as §1, §2, §3, §4

tyrosinase [3] = assay: Oxygen addition experiment, tyrosinase; format: biochemical
Procedure: as §4

Tyrosinase [4] = assay: Tyrosinase-L-tyrosine reaction, solution saturated with gas; format: biochemical, Mushroom; settings: for effect: optimal reaction conditions, simple saturation of solution with gas, minus = inhibition; for effect on rate and final equilibrium of the tyrosinase-L-tyrosine reaction: various temperatures; for temperature dependence of the effect on tyrosinase: various temperatures (15-35° C.)
Procedure: as §1, §2, §3
1. Solution preparation: 10% w/v solutions are prepared by diluting the enzyme (units/ml) and the substrate (μg/ml) in Sodium Phosphate buffer (pH 6.85, optimized pH for enzymes). The solutions are stored in refrigerator (0°-5° C.) and used for gas experiments within 2 or 3 days to avoid loss of activity.
6. Preparation of run samples: Acrylic cuvets are filled with 2 ml of substrate solution by means of a gas tight syringe. Gastight serum vials are filled with enzyme. 3×10 cc of gas are consecutively bubbled in the cuvets and serum vials, with a […] between injections. This represents a 10× displacement of dead volume while maximizing equilibration of gas. All syringes and dead spaces are purged before filling with the appropriate gas. After the third 10 cc injection, the cuvets and serum vials are left overnight under two 10 cc syringes filled with the appropriate gas in refrigerator at 0°-5° C.
8. Spectrophotometric runs: The cuvets and serum vials are filled with 10 cc of gas 40 min before the run. A gas-filled syringe is used to retrieve 0.5 ml of enzyme solution to avoid air contact. The 0.5 ml syringe injections of enzyme are made simultaneously to effect a common starting time t0 for the samples. Seven gases (air, O2, N2, Ne, Ar, Kr, Xe) are run at five temperatures each (15° C., 20° C., 25° C., 30° C., 35° C.). Changes in the rate or final equilibrium of the reaction versus ambient air are recorded.
The optimal conditions are [E]/[S] (100 μg/ml)/(100 μg/ml), the changes in absorbance being observed at 305 nm.
3×10 cc of gas are bubbled in the silicone-sealed cuvets and serum vials (T-3754, T-7755), with an interval of 20 min (at 0°-5°C.) between each gas injection.
a. The silicone-sealed cuvets are removed from the refrigerator 40 min before the experimental run, filled with 10 cc of gas and left at room temperature (26° C.) under two 10 cc syringes.
The 0.5 ml syringe injections of enzyme are made simultaneously to effect a common starting time t0 for the samples.
200 points, 18 s intervals 1 hr run

[5] = biological target: Triosephosphate isomerase (Homo sapiens, UniProt P60174); assay: Triosephosphate isomerase activity under gas; format: biochemical
Procedure: as §1, §2, §3, §4

oxidoreductase enzymes = assay: Oxidoreductases, effects for the class; format: biochemical; settings: for Maxima for class: effect: Class I oxidoreductases, minus = inhibition
Procedure: as §1, §2, §3, §4

[6] = after addition of oxygen up to a saturating amount to the gas-saturated solution
[7] = gas-saturated solution before addition of oxygen

Chain of Triosephosphate isomerase (P60174 2-249 limits assumed, species assumed): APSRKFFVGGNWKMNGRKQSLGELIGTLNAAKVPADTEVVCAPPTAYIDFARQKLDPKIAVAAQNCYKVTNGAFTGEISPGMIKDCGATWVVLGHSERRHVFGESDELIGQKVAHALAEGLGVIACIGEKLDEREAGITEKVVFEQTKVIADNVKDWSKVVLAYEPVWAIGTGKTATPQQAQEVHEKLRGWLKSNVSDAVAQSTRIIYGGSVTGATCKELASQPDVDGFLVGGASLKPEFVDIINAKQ
Chain of Gamma-glutamyl transpeptidase (P19440 1-380 limits assumed): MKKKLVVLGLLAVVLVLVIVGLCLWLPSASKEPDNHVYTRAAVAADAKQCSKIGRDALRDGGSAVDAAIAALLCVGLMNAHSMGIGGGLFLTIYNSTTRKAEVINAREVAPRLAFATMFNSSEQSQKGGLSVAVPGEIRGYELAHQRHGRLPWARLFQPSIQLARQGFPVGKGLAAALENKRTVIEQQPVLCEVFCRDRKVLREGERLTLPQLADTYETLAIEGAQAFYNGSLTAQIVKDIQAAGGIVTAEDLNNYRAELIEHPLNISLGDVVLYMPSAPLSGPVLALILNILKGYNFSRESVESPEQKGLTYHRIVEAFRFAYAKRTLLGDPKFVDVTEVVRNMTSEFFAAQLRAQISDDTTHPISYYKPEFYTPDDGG

Structure (SMILES)	% inhibited (Tyrosinase [1]; Mix = % Kr in Ar)	effect on citrate synthetase complex reaction (citrate synthetase; 10° C.)	effect on citrate synthetase complex reaction (citrate synthetase; 25° C.)	effect on citrate synthetase complex reaction (citrate synthetase; 35° C.)	effect on citrate synthase (citrate synthetase)	effect on α-glutamyltranspeptidase [2]	effect [2]	inhibition (tyrosinase [3]; [6])	inhibition (tyrosinase [3]; [7])	effect on tyrosinase-L-tyrosine reaction (Tyrosinase [4]; 15° C.)	effect on tyrosinase-L-tyrosine reaction (Tyrosinase [4]; 20° C.)	effect on tyrosinase-L-tyrosine reaction (Tyrosinase [4]; 25° C.)	effect (Tyrosinase [4]; 25° C.)	effect on tyrosinase-L-tyrosine reaction (Tyrosinase [4]; 30° C.)	effect on rate and final equilibrium of the tyrosinase-L-tyrosine reaction (Tyrosinase [4])	effect ([5]; 10° C., plus = enhancement)	effect on oxidoreductase reactions (oxidoreductase enzymes)	Maxima for class: effect (oxidoreductase enzymes)	temperature dependence of the effect on tyrosinase (Tyrosinase [4])	further results
[Ar] [Ar, argon]	-75%	+25	-10	-15	inhibition	inhibition	-5%	12%	82%	slightly inhibits equilibrium	effective inhibitors; also recorded: strong inhibition; also recorded: dramatically inhibit; also recorded: better inhibition by argon at 20 °C than neon; also recorded: inhibiting effects	inhibit at a lesser level than the other noble gases; also recorded: less inhibition at 25 °C than neon; also recorded: inhibitory effect	-60%	inhibitory effect	inhibition; also recorded: surprisingly active at low temperatures	+8%	very active at low temperatures	-91%	–	% inhibited (Tyrosinase [1]; Mix = % Xe in AR): -75%; effect ([5]; 25° C., inhibition): -37%
[Kr] [Kr, krypton]	-77%	+37	+6	+32	enhancement	inhibition	-8%	–	–	strong effects; also recorded: large inhibitory effect	–	inhibitory effect	-73%	inhibitory effect	inhibition	+12%	somewhat lesser effect than xenon	-91%	direct inverse (negative) relationship; also recorded: activity transition occuring between 20 °C and 25 °C	effect on tyrosinase-L-tyrosine reaction (Tyrosinase [4]; 20° C., listed as Krypton): lesser inhibitory effect; effect on tyrosinase-L-tyrosine reaction (Tyrosinase [4]; 20° C., listed as krypton): effective inhibitors; also recorded: almost of equal effect; also recorded: lesser effect; also recorded: inhibiting effects
N#N [N2, nitrogen, reference compound]	–	-6	-25	-17	–	–	–	zero inhibition	84%	–	–	inhibit at a lesser level than the other noble gases	–	–	effective in inhibiting tyrosinase activity; also recorded: inhibition	–	–	–	transitional maxima is observed after 20 °C	effect on tyrosinase-L-tyrosine reaction (Tyrosinase [4]; 20° C., listed as Nitrogen): inhibits the reaction fairly well; effect on tyrosinase-L-tyrosine reaction (Tyrosinase [4]; 20° C., listed as nitrogen): lesser inhibitory effect
[Ne] [Ne, neon]	–	+11	+9	-14	–	–	-3%	–	–	strong effects; also recorded: large inhibitory effect	effective inhibitors; also recorded: dramatically inhibit; also recorded: inhibiting effects	inhibitory effect	-46.7%	inhibitory effect	–	+4%	–	-85%	activity transition occuring between 20 °C and 25 °C; also recorded: positively temperature dependent	–
